Data from patent US20100204181A1, “N-HALOGENATED AMINO ACID FORMULATIONS COMPRISING PHOSPHINE OR AMINE OXIDES” (ALCON RESEARCH, LTD., priority 2009, published 2010).

Legend:
[1] = Chemical stability of N,N-dichloro-2,2-dimethyltaurine solution with and without TBPO or TMAO; type: physicochemical
From the text: FIG. 1 is a graph showing the stability of a 0.1 w/v % solution of N,N-dichloro-2,2-dimethyltaurine with and without 0.01 w/v % TBPO; and
FIG. 2 is a graph showing the stability of a 0.11 w/v % solution of N,N-dichloro-2,2-dimethyltaurine with and without 0.037 w/v % TMAO.
The present inventors have discovered that the antimicrobial activity of N-halogenated amino acid compounds is enhanced in a formulation comprising a phosphine oxide or amine oxide compound. The enhancement is synergistic, as the phosphine oxide and amine oxide compounds tested have no intrinsic antimicrobial activity. Also the increase in antimicrobial activity of the N-halogenated amino acid compound in the presence of a phosphine oxide and/or amine oxide compound is likely not due to a chemical reaction that generates a new and more reactive chemical species.

S. aureus = assay: Viable cells per mL of S. aureus after treatment; type: cell-based; conditions: 5 minutes after treatment
Description: As shown above in Table 1, there were only 24 viable cells per mL measured 5 minutes after treatment with 0.001% N,N-dichloro-2,2-dimethyltaurine formulated with acetate buffer at pH 4. In contrast, there were 27429 and 910 viable cells per mL 5 minutes after treatment with a 0.001% N,N-dichloro-2,2-dimethyltaurine formulation comprising no buffer and adipic acid buffer, respectively.

CC(C)(CS(=O)(=O)O)N(Cl)Cl [N,N-dichloro-2,2-dimethyltaurine]
chemical stability ([1]; 0.1 w/v % solution with and without 0.01 w/v % TBPO (FIG. 1)): not affected | chemical stability ([1]; 0.11 w/v % solution with and without 0.037 w/v % TMAO (FIG. 2)): not affected | viable cells per mL (S. aureus; 0.001% formulated with acetate buffer at pH 4): 24 cells per mL | viable cells per mL (S. aureus; 0.001% formulation, adipic acid buffer): 910 cells per mL | viable cells per mL (S. aureus; 0.001% formulation, no buffer): 27429 cells per mL
